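Tested at 5 concentrations; 48 h exposure; 96-well plates; endpoints linearly interpolated, else capped at highest concentration. GI50 is the concentration that inhibits growth by half.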 Activity calls are given as the source filed them. Rule as the data show it: active = GI50 up to about 1.1 µM and inactive = higher. Residues, ends and D or L forms follow the SMILES beside them. *: point of attachment. Cbz = O=C(OCc1ccccc1)*; Boc = CC(C)(C)OC(=O)*; OSu = O=C1CCC(=O)N1O*; Bn = c1ccc(C*)cc1
Experiments:
Assay in all cases: NCI tumour cell line growth inhibition, 48 h
HCT-116 = system: HCT-116
DU-145 = system: DU-145
HT-29 = system: HT-29
OVCAR-4 = system: OVCAR-4
K562 = system: K562
HCC 2998 = system: HCC 2998
UACC-257 = system: UACC-257
Hs-578T = system: Hs-578T
M14 = system: M14
A549 = system: A549
OVCAR-8 = system: OVCAR-8
SNB-75 = system: SNB-75
CAKI-1 = system: CAKI-1
SF-268 = system: SF-268
RXF 393 = system: RXF 393
HCT-15 = system: HCT-15
RPMI-8226 = system: RPMI-8226
SK-MEL-2 = system: SK-MEL-2
NCI/ADR-RES = system: NCI/ADR-RES
LOX IMVI = system: LOX IMVI

| Compound | GI50 (HCT-116) | GI50 (DU-145) | GI50 (HT-29) | GI50 (OVCAR-4) | GI50 (K562) | GI50 (HCC 2998) | GI50 (UACC-257) | GI50 (Hs-578T) | GI50 (M14) | GI50 (A549) | GI50 (OVCAR-8) | GI50 (SNB-75) | GI50 (CAKI-1) | GI50 (SF-268) | GI50 (RXF 393) | GI50 (HCT-15) | GI50 (RPMI-8226) | GI50 (SK-MEL-2) | GI50 (NCI/ADR-RES) | GI50 (LOX IMVI) |
| --- | --- | --- | --- | --- | --- | --- | --- | --- | --- | --- | --- | --- | --- | --- | --- | --- | --- | --- | --- | --- |
| C=CCCCC1(C)CCNC1=S (stereo not drawn) | > 100 µM (inactive) | > 100 µM (inactive) | > 100 µM (inactive) | > 100 µM (inactive) | > 100 µM (inactive) | > 100 µM (inactive) | > 100 µM (inactive) | > 100 µM (inactive) | > 100 µM (inactive) | > 100 µM (inactive) | > 100 µM (inactive) | > 100 µM (inactive) | > 100 µM (inactive) | > 100 µM (inactive) | > 100 µM (inactive) | > 100 µM | > 100 µM (inactive) | > 100 µM (inactive) | – | – |
| C[C@H](CSC(=O)c1ccccc1)C(=O)N1c2ccccc2C[C@H]1C(=O)O | 41.2 µM (inactive) | > 100 µM (inactive) | 47.2 µM (inactive) | > 100 µM (inactive) | 17.5 µM (inactive) | 91.8 µM (inactive) | > 100 µM (inactive) | > 100 µM (inactive) | – | > 100 µM (inactive) | > 100 µM (inactive) | 35.3 µM (inactive) | > 100 µM (inactive) | > 100 µM (inactive) | – | 30.5 µM | – | – | 50.6 µM (inactive) | – |
| c1ccc(C2=NN(c3nc4ccccc4s3)C3(CCCCC3)N2)nc1 | 26.4 µM (inactive) | 35.7 µM (inactive) | 19.9 µM (inactive) | 24.8 µM (inactive) | 16.6 µM (inactive) | – | 16.7 µM (inactive) | 31.7 µM (inactive) | 21.4 µM (inactive) | 27.4 µM (inactive) | 31.8 µM (inactive) | 25.6 µM (inactive) | 29.4 µM (inactive) | 59.2 µM (inactive) | 21.9 µM (inactive) | 32.8 µM | 16.1 µM (inactive) | 18.4 µM (inactive) | 19.7 µM (inactive) | 20.1 µM (inactive) |
| COC1=C2C=[N+](C)C3C(=C2C=CC1OC)Cc1cc2c(cc13)OCO2 (stereo not drawn) | 13.8 µM (inactive) | 14.5 µM (inactive) | 13.5 µM (inactive) | 10.5 µM (inactive) | 6.93 µM (inactive) | – | 11.4 µM (inactive) | 13.7 µM (inactive) | 15.5 µM (inactive) | 15.8 µM (inactive) | 22 µM (inactive) | 14.8 µM (inactive) | 15.8 µM (inactive) | 3.8 µM (inactive) | – | 17.7 µM | 2.53 µM (inactive) | 15.5 µM (inactive) | 29.9 µM (inactive) | 16.3 µM (inactive) |
| O=C(CCCCCCCCC(=O)NN1C(=O)/C(=C\c2ccc(O)c(O)c2)SC1c1c(O)ccc2ccccc12)NN1C(=O)C(=Cc2ccc(O)c(O)c2)SC1c1c(O)ccc2ccccc12 (stereo not drawn) | 4.05 µM (inactive) | 8.28 µM (inactive) | 10.8 µM (inactive) | 5.16 µM (inactive) | 5.64 µM (inactive) | 24.5 µM (inactive) | 10.7 µM (inactive) | – | 5.02 µM (inactive) | 6.95 µM (inactive) | 4.49 µM (inactive) | 60.4 µM (inactive) | 6.01 µM (inactive) | 6.4 µM (inactive) | 10 µM (inactive) | 4.66 µM | 3.85 µM (inactive) | 5.97 µM (inactive) | 10.6 µM (inactive) | 1.79 µM (inactive) |
| NS(=O)(=O)c1ccc(NCc2nc3ccccc3[nH]2)cc1 | > 100 µM (inactive) | > 100 µM (inactive) | > 100 µM (inactive) | > 100 µM (inactive) | – | – | > 100 µM (inactive) | > 100 µM (inactive) | > 100 µM (inactive) | > 100 µM (inactive) | > 100 µM (inactive) | > 100 µM (inactive) | > 100 µM (inactive) | > 100 µM (inactive) | > 100 µM (inactive) | > 100 µM | – | > 100 µM (inactive) | > 100 µM (inactive) | > 100 µM (inactive) |
| C[N+](C)(C)CC(=O)N/N=C(/CC(=O)CC(C1=C(O)c2ccccc2OC1)c1ccccc1)C(=O)Nc1cccc(Cl)c1 (stereo not drawn) | > 100 µM (inactive) | > 100 µM (inactive) | > 100 µM (inactive) | > 100 µM (inactive) | > 100 µM (inactive) | > 100 µM (inactive) | > 100 µM (inactive) | – | > 100 µM (inactive) | > 100 µM (inactive) | > 100 µM (inactive) | > 100 µM (inactive) | > 100 µM (inactive) | > 100 µM (inactive) | > 100 µM (inactive) | > 100 µM | > 100 µM (inactive) | > 100 µM (inactive) | > 100 µM (inactive) | > 100 µM (inactive) |
| O=C1CSC(c2ccccc2)N1c1ccc(-c2ccc(-n3c(-c4ccccc4)nc4ccccc4c3=O)cc2)cc1 (stereo not drawn) | – | 85.1 µM (inactive) | 46.1 µM (inactive) | 30.5 µM (inactive) | 33.3 µM (inactive) | 34.8 µM (inactive) | > 100 µM (inactive) | > 100 µM (inactive) | 50 µM (inactive) | 41.7 µM (inactive) | 44.4 µM (inactive) | – | > 100 µM (inactive) | 49.4 µM (inactive) | – | 29.2 µM | 36.8 µM (inactive) | 25.5 µM (inactive) | 43.5 µM (inactive) | 50.7 µM (inactive) |
| CC1(C)CC(=O)c2c(nc3ccc4ccccc4c3c2-c2ccc(NC(=O)CCC(=O)Nc3ccc(-c4c5c(nc6ccc7ccccc7c46)CC(C)(C)CC5=O)cc3)cc2)C1 | > 100 µM (inactive) | > 100 µM (inactive) | > 100 µM (inactive) | – | > 100 µM (inactive) | – | > 100 µM (inactive) | > 100 µM (inactive) | > 100 µM (inactive) | > 100 µM (inactive) | > 100 µM (inactive) | 28.2 µM (inactive) | > 100 µM (inactive) | > 100 µM (inactive) | > 100 µM (inactive) | – | > 100 µM (inactive) | > 100 µM (inactive) | > 100 µM (inactive) | > 100 µM (inactive) |
| COc1ccc2c(c1)CN1C(=N2)CSC1c1ccccc1Cl (stereo not drawn) | 17.5 µM (inactive) | – | 17.4 µM (inactive) | 20.1 µM (inactive) | 5.33 µM (inactive) | 14.4 µM (inactive) | 13.4 µM (inactive) | 27.9 µM (inactive) | 18.3 µM (inactive) | 25.7 µM (inactive) | 16.7 µM (inactive) | 19 µM (inactive) | 29.1 µM (inactive) | 24 µM (inactive) | 14.4 µM (inactive) | 11.7 µM | 12.1 µM (inactive) | 17.7 µM (inactive) | 10.1 µM (inactive) | 15 µM (inactive) |
| Cc1ccc(C(=O)c2[nH]c(Nc3ccc(Cl)cc3)c(C(=S)Nc3ccccc3)c2N)cc1 | 3.72 µM (inactive) | 8.05 µM (inactive) | 4.43 µM (inactive) | 1.97 µM (inactive) | 7.38 µM (inactive) | 2.29 µM (inactive) | 18.7 µM (inactive) | – | 12.9 µM (inactive) | 2.27 µM (inactive) | 4.68 µM (inactive) | 2.94 µM (inactive) | 8.67 µM (inactive) | 5.78 µM (inactive) | 4.94 µM (inactive) | 10.7 µM | 5.05 µM (inactive) | 14.5 µM (inactive) | 4.37 µM (inactive) | 3.91 µM (inactive) |
| COc1cc(/C=C2/CCS(=O)(=O)c3ccc(C)cc3C2=O)cc(OC)c1OC | 2.95 µM (inactive) | 3.48 µM (inactive) | 3.92 µM (inactive) | 9.38 µM (inactive) | 2.06 µM (inactive) | 4.34 µM (inactive) | 4.15 µM (inactive) | 4.73 µM (inactive) | 5.33 µM (inactive) | 4.88 µM (inactive) | 2.7 µM (inactive) | 5.27 µM (inactive) | 4.65 µM (inactive) | 4.49 µM (inactive) | – | 4.59 µM | 2.65 µM (inactive) | 9.75 µM (inactive) | 3.14 µM (inactive) | 2.61 µM (inactive) |
| O=C1N2CCN=C2c2ccccc2C1(O)c1ccccc1 (stereo not drawn) | > 100 µM (inactive) | > 100 µM (inactive) | > 100 µM (inactive) | > 100 µM (inactive) | > 100 µM (inactive) | > 100 µM (inactive) | > 100 µM (inactive) | > 100 µM (inactive) | > 100 µM (inactive) | > 100 µM (inactive) | > 100 µM (inactive) | > 100 µM (inactive) | > 100 µM (inactive) | > 100 µM (inactive) | – | > 100 µM | > 100 µM (inactive) | – | > 100 µM (inactive) | > 100 µM (inactive) |
| C[C@]12CC[C@H](O)CC1=CC[C@@H]1[C@@H]2CC[C@]2(C)/C(=N/OCCN3CCCC3)CC[C@@H]12 | 14.9 µM (inactive) | – | 2.7 µM (inactive) | 16.4 µM (inactive) | 4.36 µM (inactive) | 22.3 µM (inactive) | 14.6 µM (inactive) | 22.9 µM (inactive) | – | – | 16.3 µM (inactive) | 19.3 µM (inactive) | 20.9 µM (inactive) | 53.2 µM (inactive) | 15.1 µM (inactive) | 12.1 µM | 15.2 µM (inactive) | 21 µM (inactive) | 18.2 µM (inactive) | 19.1 µM (inactive) |
| CC(C)(C)OC(=O)NC(Cc1ccc(OCc2ccccc2)cc1)C(=O)NC(CCCCNC(=O)OCc1ccccc1)C(=O)NC(CCCCNC(=O)OCc1ccccc1)C(=O)ON1C(=O)CCC1=O (stereo not drawn) (Boc-Tyr(Bn)-Lys(Cbz)-Lys(Cbz)-OSu; configuration not given here) | 24.9 µM (inactive) | 88.5 µM (inactive) | 41.1 µM (inactive) | 60.7 µM (inactive) | – | – | > 100 µM (inactive) | 16.4 µM (inactive) | > 100 µM (inactive) | > 100 µM (inactive) | 29.1 µM (inactive) | 51.6 µM (inactive) | 64.4 µM (inactive) | 40.2 µM (inactive) | 39.4 µM (inactive) | > 100 µM | > 100 µM (inactive) | 38.4 µM (inactive) | > 100 µM (inactive) | – |
